In US20050009837A1, “Modulators of lipid metabolism and methods of use” (City of Hope, priority 2003, published 2005):

Tests used:
human PXR = human PXR (Homo sapiens, UniProt O75469); settings: cited from earlier work
RXR = RXR (Homo sapiens, UniProt P19793); experiment: RXR activity (data not shown); type: cell-based
[1] = tested on: SRE reporter (FAS proximal promoter); experiment: SRE reporter (FAS proximal promoter-luciferase) assay in CV-1 cells; type: cell-based
Method: Since LXR regulates SREBP-1c expression, LXR also should regulate activities downstream of SREBP-1c. To test this, CV-1 cells were transiently transfected with as in Example 6, but with the SRE or the SREm reporter, SREBP-1c-dependent reporter constructs consisting of the FAS proximal promoter linked to the luciferase gene. […] See Wang et al., Mol. Cell 3:543-553, 1999, the disclosures of which are hereby incorporated by reference. Cells then were treated as in Example 6 with the indicated compounds, Clotrimazole or 25-hydroxycholesterol (25-OH cholesterol). 25-OH cholesterol is known to repress the synthesis of SREBP-1c and is therefore used to eliminate the effects of this transcription factor on the FAS promoter (SRE).

[2] = tested on: −241/+12 mSREBP-1c promoter; experiment: SREBP-1c promoter reporter assay in CV-1 cells; type: cell-based; settings: 10 μM
Method: This promoter is directly regulated by LXR via two LXREs present within the first 240 base pairs of the proximal promoter. Thus, we transfected CV-1 cells with the −241/+12 mSREBP-1c promoter along with LXRα or LXRβ. CV-1 cells were transiently transfected with full length LXRα or LXRβ, the SREBP-1c promoter or the SREBP-1c LXREm reporter and CMX-β-gal (as an internal control) in lipid-stripped serum. After transfection, the cells were treated with 10 μM Clotrimazole. The luciferase activity was normalized to the internal β-galactosidase control (reporter activity).

human LXRα = target: T1, human LXRα (Homo sapiens, UniProt Q13133); experiment: Full-length hLXRα/hRXRα LXREx3 TK-Luc reporter assay in transfected CV-1 cells; type: cell-based; settings: 20 μM, 40 hours
T1 construct: expressed in transfected cells; host or cells: CV-1 cells
T1 sequence (Q13133 1-447): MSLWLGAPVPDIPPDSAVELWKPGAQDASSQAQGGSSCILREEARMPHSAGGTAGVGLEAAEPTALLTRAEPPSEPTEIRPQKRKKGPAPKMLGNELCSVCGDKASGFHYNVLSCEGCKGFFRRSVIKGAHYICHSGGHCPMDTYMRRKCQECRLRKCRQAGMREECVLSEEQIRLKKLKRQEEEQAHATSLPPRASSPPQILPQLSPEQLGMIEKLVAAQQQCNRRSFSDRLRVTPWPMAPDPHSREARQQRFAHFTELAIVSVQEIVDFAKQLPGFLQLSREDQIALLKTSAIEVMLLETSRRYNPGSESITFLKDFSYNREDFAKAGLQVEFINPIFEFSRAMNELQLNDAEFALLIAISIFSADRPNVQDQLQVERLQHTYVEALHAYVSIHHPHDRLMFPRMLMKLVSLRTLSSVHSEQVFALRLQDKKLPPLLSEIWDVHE
T1 sequence (P19793 1-462 partner): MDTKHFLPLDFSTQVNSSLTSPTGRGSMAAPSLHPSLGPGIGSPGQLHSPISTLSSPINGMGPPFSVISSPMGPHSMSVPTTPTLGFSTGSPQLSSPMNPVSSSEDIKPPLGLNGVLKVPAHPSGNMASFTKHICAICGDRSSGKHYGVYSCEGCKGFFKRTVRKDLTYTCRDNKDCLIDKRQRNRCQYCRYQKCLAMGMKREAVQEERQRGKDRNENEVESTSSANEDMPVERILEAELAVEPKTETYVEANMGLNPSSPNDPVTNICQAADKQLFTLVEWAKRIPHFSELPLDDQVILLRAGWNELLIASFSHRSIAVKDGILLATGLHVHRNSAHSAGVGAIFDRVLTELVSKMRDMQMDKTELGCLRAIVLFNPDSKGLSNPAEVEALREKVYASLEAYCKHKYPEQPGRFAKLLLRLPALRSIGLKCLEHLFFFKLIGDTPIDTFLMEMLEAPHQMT
Method: CV-1 cells were grown in DMEM supplemented with 10% resin-charcoal stripped fetal bovine serum, 50 U/ml penicillin G and 50 μg/ml streptomycin sulfate at 37° C. in 5% CO2. Cells were plated to 50-80% confluence one day prior to transfection using phenol red-free DMEM-FBS. The cells were transfected by lipofection using N-[1-(2,3-dioleoyloxy)propyl]-N,N,N-ammonium methyl sulfate according to manufacturer's instructions (Boehringer Mannheim).
Genes encoding the following full-length proteins, which are suitable for use in the studies described herein, were cloned into pCMX: human RXRα (Gene Bank accession X52773) and human LXRα (GenBank accession U22662). The cells were transfected with CMX-βgal and luciferase constructs. The CMX-βGal construct contained the ligand binding domain of human RXR (hRXRα) and the ligand binding domain of human LXRα (hLXRα) as indicated in FIG. 1. The luciferase reporter construct (LXREx3 TK-Luc) contained the herpes virus thymidine kinase promoter (−105/+51) linked to three copies of the response element LXRE. After transfection, the cells were treated with 20 μM of a synthetic azole test compound or vehicle alone for 40 hours in phenol red-free DMEM-FBS.

NIH3T3-L1 adipocytes = experiment: Triglyceride content (Nile Red) of NIH3T3-L1 cells differentiated to adipocytes; type: cell-based; settings: 7 days
Method: NIH 3T3-L1 cells were maintained in growth media consisting of Dulbecco's modified Eagle's medium (DMEM) supplemented with 10% calf bovine serum (CBS), 50 U/ml penicillin G and 50 μg/ml streptomycin sulfate. To induce NIH 3T3-L1 differentiation into adipocytes, confluent cells were transferred from their growth media to DMEM containing 10% fetal bovine serum (FBS), 5 μg/ml insulin, 0.5 mM 3-isobutyl-1-methylxanthine (IBMX) and 1 μM dexamethasone for 7 days. During the differentiation period, cells also optionally received 200 nM T0901317, 7.5 μM Clotrimazole or both.
NIH3T3-L1 cells were allowed to differentiate for 7 days in the presence of a well-established differentiation cocktail containing dexamethazole (1 μm), IBMX (0.5 mM) and insulin (5 μg/ml) in the absence or presence of T0901317 (200 nM) or Clotrimazole (7.5 μm). The cells then were fixed and stained with Nile Red, which stains triglycerides (TG) green, and DAPI to visualize nuclei (in blue). TG content of the cell reflected increased or decreased lipogenesis.

human PXR, sequence (O75469 whole entry): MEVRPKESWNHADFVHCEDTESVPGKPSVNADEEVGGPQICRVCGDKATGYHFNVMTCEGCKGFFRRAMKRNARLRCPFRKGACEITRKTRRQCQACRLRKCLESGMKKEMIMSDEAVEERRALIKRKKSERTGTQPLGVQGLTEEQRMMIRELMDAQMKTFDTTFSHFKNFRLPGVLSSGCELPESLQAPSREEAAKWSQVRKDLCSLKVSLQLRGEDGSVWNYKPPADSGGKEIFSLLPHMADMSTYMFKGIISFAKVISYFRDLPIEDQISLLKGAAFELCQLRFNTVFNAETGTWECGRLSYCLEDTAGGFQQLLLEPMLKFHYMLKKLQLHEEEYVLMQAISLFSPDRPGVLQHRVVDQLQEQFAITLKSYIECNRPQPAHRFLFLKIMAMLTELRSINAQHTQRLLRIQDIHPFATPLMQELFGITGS

- effect on RXR activity (RXR): no effect
Structure (SMILES): Clc1ccccc1C(c1ccccc1)(c1ccccc1)n1ccnc1 [Clotrimazole]
- activity on human PXR (human PXR): agonist
- LXRα induction of SRE reporter activity ([1]; LXRα co-transfected (3-fold increase)): prevented this induction
- LXRβ induction of SRE reporter activity ([1]; LXRβ co-expression (almost 2-fold increase)): prevented this induction
- activity of reporter containing mutated SRE ([1]; SREm reporter): no significant effects
- repression of SRE reporter ([1]; absence of LXR): only a weak repressive effect
- SREBP-1c promoter activity ([2]; absence of LXR, lipid-stripped serum): repressed
- SREBP-1c LXREm mutant promoter activity ([2]; both LXREs inactivated, absence or presence of LXR): did not repress the promoter activity
- LXRα-induced SREBP-1c promoter activity ([2]; co-transfected LXRα): repressed the LXR-induced activity
- LXRβ-induced SREBP-1c promoter activity ([2]; co-transfected LXRβ): repressed the LXR-induced activity
- antagonism of constitutive activation mediated by LXR (hLXRα activity, LXREx3 TK-Luc) (human LXRα): antagonize the constitutive activation mediated by LXR
- TG content compared to treatment with T0901317 alone (NIH3T3-L1 adipocytes; Clotrimazole 7.5 μm plus T0901317 200 nM): reduction in TG content
- TG content compared to differentiation cocktail only (NIH3T3-L1 adipocytes; T0901317 200 nM or Clotrimazole 7.5 μm): decreased
